Results as given in PubChem BioAssay AID1645861 (Buhrlage Lab, Dana-Farber Cancer Institute and Novartis …, 2021).
The source made the active and inactive calls.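 The calls were made as follows: active = compounds whose peak USP7 inhibition across the dose series reached 30% or more; inactive = the rest.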

Biological target: Ubiquitin carboxyl-terminal hydrolase 7 (Homo sapiens) (UniProt Q93009)
Test: Ubiquitin-specific protease 7 DUB inhibitors, concentration-effect, biochemical, validation of primary hits (AID 1645861)
Conditions: purified USP7, Ub-rhodamine cleavage fluorescence, 60 min

Ubiquitin carboxyl-terminal hydrolase 7 (Homo sapiens), sequence (Q93009 whole entry, looked up): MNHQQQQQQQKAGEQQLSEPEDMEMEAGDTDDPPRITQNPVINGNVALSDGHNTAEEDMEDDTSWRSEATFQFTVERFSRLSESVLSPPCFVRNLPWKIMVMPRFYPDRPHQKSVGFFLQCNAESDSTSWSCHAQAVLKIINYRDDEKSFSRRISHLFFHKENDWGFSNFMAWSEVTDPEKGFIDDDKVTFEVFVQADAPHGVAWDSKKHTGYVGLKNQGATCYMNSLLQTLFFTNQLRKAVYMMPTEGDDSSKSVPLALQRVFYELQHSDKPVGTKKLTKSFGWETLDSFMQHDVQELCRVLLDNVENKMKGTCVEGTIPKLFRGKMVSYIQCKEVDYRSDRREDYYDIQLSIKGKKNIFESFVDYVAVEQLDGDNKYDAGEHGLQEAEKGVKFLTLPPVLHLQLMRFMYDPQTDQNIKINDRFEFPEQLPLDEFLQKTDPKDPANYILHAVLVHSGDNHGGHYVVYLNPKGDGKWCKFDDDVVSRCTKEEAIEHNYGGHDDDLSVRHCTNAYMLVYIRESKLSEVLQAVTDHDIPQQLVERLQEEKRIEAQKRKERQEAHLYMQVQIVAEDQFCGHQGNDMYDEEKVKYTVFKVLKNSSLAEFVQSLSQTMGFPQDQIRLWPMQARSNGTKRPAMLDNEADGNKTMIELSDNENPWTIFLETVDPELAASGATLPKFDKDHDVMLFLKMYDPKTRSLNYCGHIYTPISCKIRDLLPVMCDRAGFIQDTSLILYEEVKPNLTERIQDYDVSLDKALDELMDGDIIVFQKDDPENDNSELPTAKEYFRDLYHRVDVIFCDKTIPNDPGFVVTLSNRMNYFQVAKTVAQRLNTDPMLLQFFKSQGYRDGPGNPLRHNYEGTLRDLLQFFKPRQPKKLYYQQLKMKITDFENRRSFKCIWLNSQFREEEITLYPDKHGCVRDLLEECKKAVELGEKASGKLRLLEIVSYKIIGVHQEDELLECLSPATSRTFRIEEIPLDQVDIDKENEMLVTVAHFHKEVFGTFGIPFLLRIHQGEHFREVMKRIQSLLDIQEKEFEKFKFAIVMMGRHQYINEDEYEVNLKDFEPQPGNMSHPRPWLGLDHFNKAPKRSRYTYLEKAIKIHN

Row | SMILES | IC50
1 | CCOC(=O)N1CCN(C(=O)c2ccc(NCc3ccc(F)cc3)c(S(=O)(=O)Nc3cccc(C(F)(F)F)c3)c2)CC1 | > 50 µM (inactive)
2 | CCOc1ccc2c(c1)c(=O)c(C(=O)c1ccccc1)cn2CC(=O)Nc1ccc(Cl)cc1 | 41.6 µM
3 | COc1ccc(CC(=O)Nc2ccccc2-c2nc3ccccc3[nH]2)cc1OC | > 50 µM (inactive)
4 | CCC(=O)Nc1nc2cc(NC(=O)Nc3cccc(C)c3)ccc2s1 | > 50 µM (inactive)
5 | CC1=C(Cn2c3cccc(=O)c-3nc3ccccc32)CCC(C)(C)C1 | > 50 µM (inactive)
6 | Cc1cccc(OCCn2c(CCNC(=O)C3CCCCC3)nc3ccccc32)c1 | > 50 µM (inactive)
7 | COc1cccc(NC(=O)C(Sc2cccc(NC(=O)c3ccccc3F)c2)c2ccccc2)c1 (stereo not given) | > 50 µM (inactive)
8 | O=C1Cc2ccccc2C(=O)N1Cc1cccc(Cl)c1 | > 50 µM (inactive)
9 | COc1ccc(-c2ccc3cc(C(=O)O)ccc3c2)cc1C12CC3CC(CC(C3)C1)C2 | > 50 µM (inactive)
10 | CC(C)c1ccc(NC(=O)c2cc(-c3cccnc3)n[nH]2)cc1 | > 50 µM (inactive)
11 | Cc1cccc(NC(=O)Nc2nnc(CC(=O)NCc3ccccc3)s2)c1 | > 50 µM (inactive)
12 | O=C(NC1(O)C(=O)c2ccccc2C1=O)c1cccc2c1-c1ccccc1C2=O | > 50 µM (inactive)
13 | CCCCCCCc1cc(OC(=O)c2c(CCCCCCC)cc(O)cc2O[C@@H]2O[C@H](CO)[C@H](O)[C@H](O)[C@H]2O)cc(O)c1C(=O)O | 21.4 µM
14 | Cn1c(=O)c2nc(-c3ccc(Cl)cc3)nnc2n(C)c1=O | > 50 µM (inactive)
15 | COc1ccc(Cl)cc1NC(=O)Cn1c(=O)n(CCCCC(=O)NCCc2ccccc2)c(=O)c2ccccc21 | > 50 µM (inactive)
